Where two headings read alike, the source gives them in different places.
Tests used:
Type in all cases: cell-based, human
HUVECs [1] = assay: HUVEC adhesion to basement membrane substrata
Protocol: (§1) Human umbilical vein endothelial cells (H 930) were generously supplied by Dr. Tom Maciag, American Red Cross (Gaithersburg, Md., USA) and were used between passages 9 and 14 to avoid senescence. HUVECs were grown on fibronectin-coated tissue culture plastic (200 μg/150 mm dish) in complete medium (Medium 199 (M-199) containing 5 U/mL preservative-free heparin, 25.5 μg/mL ECGS, 10% fetal bovine serum and 100 U/mL penicillin, 100 μg/mL streptomycin, and 0.25 μg/mL fungizone).
Adhesion of control and compound 1-treated HUVECs to specific substrata was tested as follows. Glass slides coated with specific adhesion substrata were prepared by placement of 10 μL aliquots of 25 nM each fibronectin,laminin, gelatin or type IV collagen into triplicate wells of multichamber slides. Slides were incubated at 37° C. for 2 hours and then air-dried overnight. The following day the slides were blocked with 300 μL of blocking buffer (Tris […] pH 7.8, NaCl 111 mM, CaCl2 5 mM, and 1% BSA) for 30 min at 37° C. HUVECs were harvested with trypsin-EDTA and allowed to recover at 37° C. in complete medium for at least 1 hr. The cells were then washed free of serum and resuspended at 1×10^6 cells/mL in control medium followed by addition to the coated wells (200 μL) and incubation at 37° C. for 90 min. After incubation, the slides were washed gently three times with DPBS and the adherent cells were fixed and stained as above. Five high power fields per well in triplicate were counted to determine the number of cells attached to the different substrata. Data are expressed as percentage of control cell adhesion (x±SEM, n=3).

bFGF receptor = assay: bFGF-induced tyrosine phosphorylation in HUVECs (phosphotyrosine immunoprecipitation and Western analysis); conditions: 10 μM
Protocol: as §1
It exerts its activity through activation of the bFGF receptor kinase with subsequent autophosphorylation of its receptor as well as phosphorylation of other signaling proteins. See, Jaye, et al., Biochim. Biophys. Acta 1135:185-199 (1992). Phosphotyrosine immunoprecipitation and Western analysis were used to investigate the effect of compound 1 on bFGF-mediated tyrosine phosphorylation.
The following day, cells were exposed to bFGF, 10 ng/mL for 15 min at 37° C. Cells were quickly washed with cold DPBS, scraped from the plate and lysed with lysis buffer (50 mM Tris-HCl pH 7.6, 300 mM NaCl, 10 μg/mL aprotinin, 1 mM phenylmethylsulphonylfluoride (PMSF), 400 μM sodium orthovanadate, 400 μM EDTA, 100 mM sodium fluoride, 100 mM sodium pyrophosphate, and 0.5% Triton-X 100) for 1 hr on ice. The lysates were centrifuged at 4° C. at 1200×g for 15 minutes after which the supernatants were saved and protein concentration determined using bicinchoninic assay protein detection method. Aliquots of lysis protein ([…] per sample) were incubated with 10 μg of anti-phosphotyrosine monoclonal antibody, 4G10, pre-conjugated to protein A-sepharose beads for 1 hr at 4° C. The beads were washed three times with buffer containing 0.1% Triton X-100 and then the immunoprecipitated proteins were eluted with 2X Laemmli sample buffer and subjected to 4-12% gradient gel electrophoresis. Proteins were transferred electrically, blocked (7.5% glycine, 5% dry milk, 1% ovalbumin) for 30 min at room temperature, then washed (0.001% ovalbumin, 0.001% dry milk, 0.001% Tween-20 in phosphate-buffered saline (PBS)). […]

MMP-2 = assay: Northern blot analysis of MMP-2 expression in HUVECs; conditions: 24 hr; for inhibition at 10 µM: Homo sapiens, HUVEC
Protocol: as §1
HUVECs were grown to confluence as described. Fresh complete medium with test compounds was added to confluent cells for an additional 24 hr incubation. bFGF (10 ng/mL), and/or compound 1 (10 μM) or DMSO control (0.1%) were added as indicated below. Total RNA was isolated by the guanidine isothiocyanate/CsCl method. Aliquots of RNA (7.5 μg) were separated on 1% agarose/formaldehyde gels, passively transferred to GeneScreen Plus membrane in 20X SSC, then cross-linked with ultraviolet light. Blots were prewashed for 1 hr at 42° C. in 1M NaCl, 10 mM Tris, 1 mM EDTA, 0.1% SDS and then hybridized overnight at 42° C. with a formamide-containing buffer (hybridization buffer final: 50% formamide, 4X SSC, 10 mM Tris pH 7.5, IX Denhardt solution, 0.2% SDS, 125 μg/ml salmon sperm DNA) with a random-primed 300 bp insert for MMP-2 (gift of Dr. William Stetler-Stevenson, Laboratory of Pathology, NCI). Blots were washed under stringent conditions then exposed to film. After removal of MMP-2 probe, blots were rehybridized with β-actin probe for quantitation of the RNA load. Results were quantitated by densitometric evaluation of the autoradiographs.
Lane 1 corresponds to the mRNA from HUVECs treated with DMSO (control). Lanes 2-4 show the mRNA isolated from HUVECs treated with compound 1 (10 μM) alone, compound 1 (10 μM) and bFGF (10 ng/mL), bFGF (10 ng/mL) alone, respectively.

HUVECs [2] = assay: HUVEC vascular tube formation on Matrigel; conditions: 24 hr
Protocol: as §1
After 12-24 hours, this rearrangement leads to the development of a network of tube-like structures that resemble capillaries. See, Kubota, et al., J. Cell Biol. 107:1589-1598 (1988).
Matrigel is a solution of murine basement membrane enriched for laminin and collagen type IV and has been used previously as a permissive substrate for vessel formation. See, Albini, et al., Int. J. Oncol. 1:723-730 (1992). The effect of compound 1 on in vitro tube formation was tested using this system. Individual wells of 24 well plates were coated with a 300 μL aliquot of concentrated Matrigel solution (10 mg/mL) and allowed to solidify for 1 hr at 37° C. Compound 1 (1.0, 10 or 20 μM) or DMSO control (0.1%) was added to Matrigel and to the culture media. HUVECs (50,000 cells/well) were incubated on the Matrigel in complete medium for 24 hr then evaluated by phase contrast microscopy and photographed.

[3] = bFGF 10 ng/mL + Compound 1 10 μM

SMILES: NC(=O)c1nnn(Cc2cc(Cl)c(C(=O)c3ccc(Cl)cc3)c(Cl)c2)c1N [Compound 1, 5-amino-1-(4-(4-chlorobenzoyl)-3,5-dichlorobenzyl)1,2,3-triazole-4-carboxamide]
- inhibition of HUVEC adhesion to all substrata tested (in words) (HUVECs [1]; 0-10 μM, 18 hr pretreatment): inhibited in a dose-dependent fashion
- inhibition of HUVEC adhesion to collagen type IV (in words) (HUVECs [1]; 1.0 μM, 18 hr pretreatment, P2<0.027): statistically significant
- inhibition of HUVEC adhesion to laminin (in words) (HUVECs [1]; 1.0 μM, 18 hr pretreatment, P2<0.04): statistically significant
- inhibition of HUVEC adhesion to fibronectin (in words) (HUVECs [1]; 1.0 μM, 18 hr pretreatment, P2<0.043): statistically significant
- inhibition of HUVEC adhesion to laminin (in words) (HUVECs [1]; 10.0 μM, 18 hr pretreatment, p2<0.004): statistically significant
- inhibition of HUVEC adhesion to fibronectin (in words) (HUVECs [1]; 10.0 μM, 18 hr pretreatment, p2<0.011): statistically significant
- inhibition of HUVEC adhesion to collagen type IV (in words) (HUVECs [1]; 10.0 μM, 18 hr pretreatment, p2<0.025): statistically significant
- inhibition of HUVEC adhesion to gelatin (in words) (HUVECs [1]; preincubation of HUVECs with compound): did not significantly inhibit adhesion
- effect on bFGF-stimulated tyrosine phosphorylation (in words) (bFGF receptor; 18 hr, bFGF 10 ng/mL for final 15 minutes): inhibition of bFGF-stimulated phosphorylation
- effect on bFGF-stimulated tyrosine phosphorylation, including autophosphorylation of bFGF receptor (in words) (bFGF receptor; bFGF 10 ng/mL): blocked bFGF-stimulated tyrosine phosphorylation
- effect on basal tyrosine phosphorylation (in words) (bFGF receptor; no bFGF): Neither DMSO control (lane 1) or compound 1 (10 μM, lane 2) altered basal tyrosine phosphorylation
- Corrected values (MMP-2 mRNA corrected for loading) (MMP-2; Control + Compound 1, 10 μM): 0.30
- MMP-2 (densitometer) (MMP-2; Control + Compound 1, 10 μM): 38 Densitometer units
- inhibition at 10 µM (MMP-2; no bFGF, vs control, read-out: % Inhibition of native MMP-2 expression): 86%
- inhibition at 10 µM (MMP-2; bFGF 10 ng/mL, vs bFGF, read-out: % Inhibition of MMP-2 expression in presence of bFGF): 62%
- Corrected values (MMP-2 mRNA corrected for loading) (MMP-2; [3]): 0.14
- MMP-2 (densitometer) (MMP-2; [3]): 31 Densitometer units
- inhibition of tube formation (in words) (HUVECs [2]; 20 μM, similar when omitted from the Matrigel): more striking inhibition of tube formation
- appearance of multicellular tubes vs DMSO control (in words) (HUVECs [2]; compound in Matrigel and media, similar when only in media): less extensive, thinner, foreshortened, and less cellular
